A word on the IC50: it is the concentration that inhibits the measured activity by half.

This experiment deals with human lung tryptase. The experiment is described as follows: β-Tryptase In-Vitro Enzyme Assay. In kind it is biochemical. As to conditions: human lung tryptase 1 nM, substrate H-D-HHT-Ala-Arg-pNa 500 μM, pH 7.4, room temperature. Here is the method:
The β-tryptase assay was conducted with human lung tryptase (Cortex Biochem #CP3033) in an aqueous buffer (10 mM Tris, 10 mM Hepes, 150 mM NaCl, 0.1% PEG 8000, pH 7.4) using the chromogenic substrate H-D-HHT-Ala-Arg-pNa. […] Percent inhibition was calculated by comparing the initial reaction velocity of samples without inhibitor to those with inhibitor. The initial reaction velocities were analyzed using Microsoft Excel.
Take `NCc1ccc2c(c1)C1(CCN(C(=O)Cc3ccc(F)cc3)CC1)CO2` [Cpd 90, 1-(4-fluoro-benzyl)carbonyl-5′-aminomethyl-spiro[piperidine-4,3′-(2H)-benzo[b]furan]]: the IC50 stood at 980 nM. The figure for `COC(=O)c1ccc(S(=O)(=O)N2CC3(CCN(C(=O)c4ccc(C#Cc5ccccc5)o4)CC3)c3cc(CN)ccc32)o1` [Cpd 345, 1-(5-phenylethynyl-furan-2-yl)carbonyl-1′-(5-methoxycarbonyl-furan-2-yl)sulfonyl-5′-aminomethyl-spiro[piperidine-4,3′-(2H)-indole]] is 13 nM; for `NCc1ccc2c(c1)C1(CCN(C(=O)/C=C/c3ccc(Cl)cc3)CC1)CO2` [Cpd 165, (E)-1-(4-chloro-phenylethenyl)carbonyl-5′-aminomethyl-spiro[piperidine-4,3′-(2H)-benzo[b]furan]] it is 380 nM. The figure for `CSc1sc(C(=O)N2CCC3(CC2)COc2ccc(CN)cc23)c2c1C(=O)CCC2` [Cpd 155, 1-(3-methylthio-4-oxo-5,6,7-trihydro-4H-benzo[c]thien-1-yl)carbonyl-5′-aminomethyl-spiro[piperidine-4,3′-(2H)-benzo[b]furan]] is 12 nM; for `COc1ccc2c(Cl)c(C(=O)N3CCC4(CC3)COc3ccc(CN)cc34)sc2c1` [Cpd 209, 1-(3-chloro-6-methoxy-benzo[b]thien-2-yl)carbonyl-5′-aminomethyl-spiro[piperidine-4,3′-(2H)-benzo[b]furan]] it is 330 nM; for `COc1cccc(-c2ccc(C(=O)N3CCC4(CC3)COc3ccc(CN)cc34)o2)c1` [Cpd 144, 1-[5-(3-methoxy-phenyl)-furan-2-yl]carbonyl-5′-aminomethyl-spiro[piperidine-4,3′-(2H)-benzo[b]furan]] it is 30 nM. The same measure for `COc1ccc(C(=O)N2CCC3(CC2)COc2ccc(CN)cc23)cc1` [Cpd 54, 1-(4-methoxy-phenyl)carbonyl-5′-aminomethyl-spiro[piperidine-4,3′-(2H)-benzo[b]furan]]: 750 nM; for `C[N+](C)(C)Cc1ccc2c(c1)C1(CCN(C(=O)c3ccc(C#Cc4ccccc4)o3)CC1)CO2` [Cpd 297, 1-(5-phenylethynyl-furan-2-yl)carbonyl-spiro[piperidine-4,3′-(2H)-benzo[b]furan]-5′-[methyl-(trimethyl)ammonium]]: 9600 nM. Turning to `NCc1ccc2c(c1)C1(CCN(C(=O)/C=C/c3ccc(Cl)c(Cl)c3)CC1)CO2` [Cpd 116, (E)-1-(3,4-dichloro-phenylethenyl)carbonyl-5′-aminomethyl-spiro[piperidine-4,3′-(2H)-benzo[b]furan]], the IC50 turned out to be 290 nM. This IC50 is about 33-fold lower than that of the compound before. The figure for `NCc1ccc2c(c1)C1(CCN(C(=O)c3ccc(C#Cc4ccccc4)o3)CC1)CN2S(=O)(=O)c1ccccc1` [Cpd 341, 1-(5-phenylethynyl-furan-2-yl)carbonyl-1′-phenylsulfonyl-5′-aminomethyl-spiro[piperidine-4,3′-(2H)-indole]] is 5.7 nM. Turning to `COc1ccc(-c2c(C(=O)N3CCC4(CC3)COc3ccc(CN)cc34)sc(SC)c2C#N)cc1` [Cpd 201, 1-[3-(4-methoxy-phenyl)-4-cyano-5-methylthio-thien-2-yl]carbonyl-5′-aminomethyl-spiro[piperidine-4,3′-(2H)-benzo[b]furan]], the midpoint of inhibition, the IC50, lay at 45 nM. This IC50 is about 7.9-fold higher than that of the compound before. `NCc1ccc2c(c1)C1(CCN(C(=O)c3ccc(F)c(F)c3)CC1)CO2` [Cpd 26, 1-(3,4-difluoro-phenyl)carbonyl-5′-aminomethyl-spiro[piperidine-4,3′-(2H)-benzo[b]furan]] displayed an IC50 of 230 nM. The compound `NCc1ccc2c(c1)C1(CCN(C(=O)C#Cc3ccc(O)cc3)CC1)CO2` [Cpd 264, 1-(4-hydroxy-phenylethynyl)carbonyl-5′-aminomethyl-spiro[piperidine-4,3′-(2H)-benzo[b]furan]] came in with a half-maximal inhibitory concentration (IC50) of 3200 nM. For the compound `O=CNCc1ccc2c(c1)C1(CCN(C(=O)c3ccc(C#Cc4ccccc4)o3)CC1)CO2` [Cpd 304, 1-(5-phenylethynyl-furan-2-yl)carbonyl-5′-formylaminomethyl-spiro[piperidine-4,3′-(2H)-benzo[b]furan]], it took 30 nM to reach half-maximal inhibition (IC50).

Take `Cc1cc(C(=O)N2CCC3(CC2)COc2ccc(CN)cc23)sc1Br` [Cpd 259, 1-(4-methyl-5-bromo-thien-2-yl)carbonyl-5′-aminomethyl-spiro[piperidine-4,3′-(2H)-benzo[b]furan]]: it took 55 nM to reach half-maximal inhibition (IC50). This IC50 is about 1.8-fold higher than that of the compound before. The same measure for `NCc1ccc2c(c1)C1(CCN(C(=O)c3ccc(NC(=O)Cn4cnc5ccccc54)cc3)CC1)CO2` [Cpd 9, 1-(4-benzoimidazol-1-ylmethylcarbonylamino-phenyl)carbonyl-5′-aminomethyl-spiro[piperidine-4,3′-(2H)-benzo[b]furan]]: 3300 nM; for `COc1ccc(CC(=O)N2CCC3(CC2)COc2ccc(CN)cc23)cc1OC` [Cpd 105, 1-(3,4-dimethoxy-benzyl)carbonyl-5′-aminomethyl-spiro[piperidine-4,3′-(2H)-benzo[b]furan]]: 770 nM. The same measure for `NCc1ccc2c(c1)C1(CCN(C(=O)Cc3cccc(Cl)c3)CC1)CO2` [Cpd 81, 1-(3-chloro-benzyl)carbonyl-5′-aminomethyl-spiro[piperidine-4,3′-(2H)-benzo[b]furan]]: 2300 nM; for `NCc1ccc2c(c1)C1(CCN(C(=O)c3cc4ccccc4[nH]3)CC1)CO2` [Cpd 285, 1-1H-indol-2-ylcarbonyl-5′-aminomethyl-spiro[piperidine-4,3′-(2H)-benzo[b]furan]]: 360 nM; for `O=C(NCc1ccc2c(c1)C1(CCNCC1)CO2)c1ccc(Cl)c(Cl)c1` [Cpd 2, 5′-(3,4-dichlorophenylcarbonylaminomethyl)-spiro[piperidine-4,3′-(2H)-benzo[b]furan]]: 1400 nM. The same measure for `NCc1ccc2c(c1)C1(CCN(C(=O)c3ccc(CSCc4ccccc4)o3)CC1)CO2` [Cpd 147, 1-[5-(benzylthiomethyl)-furan-2-yl]carbonyl-5′-aminomethyl-spiro[piperidine-4,3′-(2H)-benzo[b]furan]]: 66 nM; for `NCc1ccc2c(c1)C1(CCN(C(=O)/C=C/c3cccc(OCc4ccccc4)c3)CC1)CO2` [Cpd 281, (E)-1-(3-benzyloxy-phenylethenyl)carbonyl-5′-aminomethyl-spiro[piperidine-4,3′-(2H)-benzo[b]furan]]: 24 nM; for `NCc1ccc2c(c1)C1(CCN(C(=O)c3cc4cc(Cl)ccc4o3)CC1)CO2` [Cpd 13, 1-(5-chloro-benzo[b]-furan-2-yl)carbonyl-5′-aminomethyl-spiro[piperidine-4,3′-(2H)-benzo[b]furan]]: 1100 nM.

Consider `NCc1ccc2c(c1)C1(CCN(C(=O)c3ccc(Cl)c(I)c3)CC1)CO2` [Cpd 34, 1-(3-iodo-4-chloro-phenyl)carbonyl-5′-aminomethyl-spiro[piperidine-4,3′-(2H)-benzo[b]furan]], for which half-maximal inhibition (IC50) was put at 20 nM. The figure for `Cc1nc(-c2ccc(C(=O)N3CCC4(CC3)COc3ccc(CN)cc34)s2)cs1` [Cpd 206, 1-[5-(2-methyl-thiazol-4-yl)-thien-2-yl]carbonyl-5′-aminomethyl-spiro[piperidine-4,3′-(2H)-benzo[b]furan]] is 260 nM; for `NCc1ccc2c(c1)C1(CCN(C(=O)c3cc(C(N)=O)cc(-c4nc(-c5cccs5)no4)c3)CC1)CO2` [Cpd 284, 1-[3-(3-thien-2-yl-[1,2,4]oxadiazol-5-yl)-5-aminocarbonyl-phenyl]carbonyl-5′-aminomethyl-spiro[piperidine-4,3′-(2H)-benzo[b]furan]] it is 4.6 nM; for `NCc1ccc2c(c1)C1(CCN(C(=O)c3ccc(C#Cc4ccccc4)o3)CC1)CN2S(=O)(=O)c1cccs1` [Cpd 358, 1-(5-phenylethynyl-furan-2-yl)carbonyl-1′-thien-2-ylsulfonyl-5′-aminomethyl-spiro[piperidine-4,3′-(2H)-indole]] it is 26 nM. The figure for `NCc1ccc2c(c1)C1(CCN(Cc3ccc(Cl)c(Cl)c3)CC1)CO2` [Cpd 158, 1-(3,4-dichloro-benzyl)-5′-aminomethyl-spiro[piperidine-4,3′-(2H)-benzo[b]furan]] is 4500 nM.

Regarding `NCc1ccc2c(c1)C1(CCN(C(=O)CC3c4ccccc4-c4ccccc43)CC1)CO2` [Cpd 355, 1-(9H-fluoren-9-ylmethyl)carbonyl-5′-aminomethyl-spiro[piperidine-4,3′-(2H)-benzo[b]furan]], the IC50 was determined as 290 nM. The same measure for `NCc1ccc2c(c1)C1(CCN(C(=O)Cc3ccc(I)cc3)CC1)CO2` [Cpd 96, 1-(4-iodo-benzyl)carbonyl-5′-aminomethyl-spiro[piperidine-4,3′-(2H)-benzo[b]furan]]: 450 nM; for `NCc1ccc2c(c1)C1(CCN(C(=O)C=C3c4ccccc4-c4ccccc43)CC1)CO2` [Cpd 189, 1-(1-oxo-2-fluoren-9-ylidene-ethyl)-5′-aminomethyl-spiro[piperidine-4,3′-(2H)-benzo[b]furan]]: 380 nM; for `CS(=O)(=O)N1CC2(CCN(C(=O)c3ccc(C#Cc4ccccc4)o3)CC2)c2cc(CN)ccc21` [Cpd 340, 1-(5-phenylethynyl-furan-2-yl)carbonyl-1′-methylsulfonyl-5′-aminomethyl-spiro[piperidine-4,3′-(2H)-indole]]: 1.8 nM.

In turn, `NCc1ccc2c(c1)C1(CCN(C(=O)c3ccc(OCc4ccccc4)cc3)CC1)CO2` [Cpd 76, 1-(4-benzyloxy-phenyl)carbonyl-5′-aminomethyl-spiro[piperidine-4,3′-(2H)-benzo[b]furan]] yielded an IC50 of 420 nM. This IC50 lies about 230-fold higher than the previous one. The figure for `CN(C)c1ccc(C(=O)N2CCC3(CC2)COc2ccc(CN)cc23)cc1` [Cpd 55, 1-(4-dimethylamino-phenyl)carbonyl-5′-aminomethyl-spiro[piperidine-4,3′-(2H)-benzo[b]furan]] is 1000 nM; for `N#Cc1cccc(C(=O)N2CCC3(CC2)COc2ccc(CN)cc23)c1` [Cpd 66, 1-(3-cyano-phenyl)carbonyl-5′-aminomethyl-spiro[piperidine-4,3′-(2H)-benzo[b]furan]] it is 1900 nM.

The values are drawn from patent US8158792B2, “Spiropiperidines for use as tryptase inhibitors” (Janssen Pharmaceutica N.V., priority 2007, dated 2012).
